Data on one molecule can be found in PMC5218480 (PLoS ONE, 2017).

This assay relates to MV-4-11 cells. Briefly: Gene expression microarray analysis (Affymetrix PrimeView) and GSEA. The class given is cell-based, human. Also on record: RFU PODN (11730768_x_at) / Fold change /veh PODN (11730768_x_at) / RFU LINC00158 (11744669_a_at) / Fold change /veh LINC00158 (11744669_a_at) / RFU DUSP10 (11751237_a_at) / Fold change /veh DUSP10 (11751237_a_at) / RFU ID3 (11757404_x_at) / Fold change /veh ID3 (11757404_x_at) / RFU PLEKHG5 (11737974_s_at) / Fold change /veh PLEKHG5 (11737974_s_at) / RFU LRRC4B (11730491_at) / Fold change /veh LRRC4B (11730491_at) / RFU GIMAP4 (11747438_a_at) / Fold change /veh GIMAP4 (11747438_a_at) / RFU KRT8 (11758183_x_at) / Fold change /veh KRT8 (11758183_x_at) / RFU CNN1 (11734310_a_at) / Fold change /veh CNN1 (11734310_a_at) / RFU VPS37D (11726825_at) / Fold change /veh VPS37D (11726825_at) / RFU C10orf10 (11716522_x_at) / Fold change /veh C10orf10 (11716522_x_at) / RFU KIR2DL2 /// KIR2DL4 /// KIR2DL5A /// KIR2DL5B /// KIR2DS1 /// KIR2DS2 /// KIR2DS3 /// KIR2DS4 /// KIR3DL3 /// KIR3DL3 /// KIR3DS1 (11738374_at) / Fold change /veh KIR2DL2 /// KIR2DL4 /// KIR2DL5A /// KIR2DL5B /// KIR2DS1 /// KIR2DS2 /// KIR2DS3 /// KIR2DS4 /// KIR3DL3 /// KIR3DL3 /// KIR3DS1 (11738374_at) / RFU C1QL1 (11718748_at) / Fold change /veh C1QL1 (11718748_at) / RFU TMPRSS4 (11747572_a_at) / Fold change /veh TMPRSS4 (11747572_a_at) / RFU HAMP (11756126_x_at) / Fold change /veh HAMP (11756126_x_at) / RFU RNFT2 (11725882_a_at) / Fold change /veh RNFT2 (11725882_a_at) / RFU NR4A2 (11747474_a_at) / Fold change /veh NR4A2 (11747474_a_at) / RFU ABCC12 (11746883_a_at) / Fold change /veh ABCC12 (11746883_a_at) / RFU TMEM136 (11760407_x_at) / Fold change /veh TMEM136 (11760407_x_at) / RFU CLDN22 /// WWC2 (11732394_at) / Fold change /veh CLDN22 /// WWC2 (11732394_at) / RFU HLA-DPB1 (11760878_x_at) / Fold change /veh HLA-DPB1 (11760878_x_at) / RFU SPINT1 (11716480_a_at) / Fold change /veh SPINT1 (11716480_a_at) / RFU GAP43 (11754022_s_at) / Fold change /veh GAP43 (11754022_s_at) / RFU A4GNT (11735810_at) / Fold change /veh A4GNT (11735810_at) / RFU PRB3 (11715151_x_at) / Fold change /veh PRB3 (11715151_x_at) / RFU TUBB4B (11761932_at) / Fold change /veh TUBB4B (11761932_at) / RFU CAPN14 (11732068_a_at) / Fold change /veh CAPN14 (11732068_a_at) / RFU TMCC2 (11721928_a_at) / Fold change /veh TMCC2 (11721928_a_at) / RFU IRGQ (11745062_a_at) / Fold change /veh IRGQ (11745062_a_at) / RFU FAM174B (11720279_a_at) / Fold change /veh FAM174B (11720279_a_at) / RFU TMPRSS4 (11748680_a_at) / Fold change /veh TMPRSS4 (11748680_a_at) / RFU FAM212B (11763350_a_at) / Fold change /veh FAM212B (11763350_a_at) / RFU PLEKHG5 (11743358_a_at) / Fold change /veh PLEKHG5 (11743358_a_at) / RFU ZSCAN30 (11745921_a_at) / Fold change /veh ZSCAN30 (11745921_a_at) / RFU CMKLR1 (11741424_a_at) / Fold change /veh CMKLR1 (11741424_a_at) / RFU LOC101060620 /// MAPK8IP1 (11723275_at) / Fold change /veh LOC101060620 /// MAPK8IP1 (11723275_at) / RFU SPTSSB (11747773_x_at) / Fold change /veh SPTSSB (11747773_x_at) / RFU PRSS12 (11739890_at) / Fold change /veh PRSS12 (11739890_at) / RFU BIN1 (11741810_x_at) / Fold change /veh BIN1 (11741810_x_at) / RFU WNT11 (11732464_a_at) / Fold change /veh WNT11 (11732464_a_at) / RFU C10orf10 (11716521_a_at) / Fold change /veh C10orf10 (11716521_a_at) / RFU C5orf56 (11738089_at) / Fold change /veh C5orf56 (11738089_at) / RFU CYB561 (11721691_x_at) / Fold change /veh CYB561 (11721691_x_at) / RFU ANKRD19P (11752326_a_at) / Fold change /veh ANKRD19P (11752326_a_at) / RFU OR2T12 /// OR2T33 /// OR2T8 (11738714_s_at) / Fold change /veh OR2T12 /// OR2T33 /// OR2T8 (11738714_s_at) / RFU VCAN (11748164_a_at) / Fold change /veh VCAN (11748164_a_at) / RFU JSRP1 (11732532_at) / Fold change /veh JSRP1 (11732532_at) / RFU KRTAP10-11 (11738290_x_at) / Fold change /veh KRTAP10-11 (11738290_x_at) / RFU MYO3A (11730013_a_at) / Fold change /veh MYO3A (11730013_a_at) / RFU EBF3 (11725865_a_at) / Fold change /veh EBF3 (11725865_a_at) / RFU CAMK2N1 (11719241_x_at) / Fold change /veh CAMK2N1 (11719241_x_at) / RFU C5orf56 (11738088_a_at) / Fold change /veh C5orf56 (11738088_a_at) / RFU OLFML3 (11715873_a_at) / Fold change /veh OLFML3 (11715873_a_at) / RFU LOC100653217 /// NTM (11731650_a_at) / Fold change /veh LOC100653217 /// NTM (11731650_a_at) / RFU MAPK11 (11762145_a_at) / Fold change /veh MAPK11 (11762145_a_at) / RFU FIZ1 (11724087_x_at) / Fold change /veh FIZ1 (11724087_x_at) / RFU OASL (11726364_x_at) / Fold change /veh OASL (11726364_x_at) / RFU SOX15 (11748057_x_at) / Fold change /veh SOX15 (11748057_x_at) / RFU CD79A (11719716_a_at) / Fold change /veh CD79A (11719716_a_at) / RFU HIST1H1D (11736915_at) / Fold change /veh HIST1H1D (11736915_at) / RFU CASKIN2 (11723855_a_at) / Fold change /veh CASKIN2 (11723855_a_at) / RFU LOC730098 (11760151_x_at) / Fold change /veh LOC730098 (11760151_x_at) / RFU OR4N2 (11742367_at) / Fold change /veh OR4N2 (11742367_at) / RFU PRRT2 (11749266_a_at) / Fold change /veh PRRT2 (11749266_a_at) / RFU SNX32 (11753110_a_at) / Fold change /veh SNX32 (11753110_a_at) / RFU CDHR5 (11726645_a_at) / Fold change /veh CDHR5 (11726645_a_at) / RFU RCAN1 (11760418_a_at) / Fold change /veh RCAN1 (11760418_a_at) / RFU FAM167A (11723789_a_at) / Fold change /veh FAM167A (11723789_a_at) / RFU FAM26E (11764081_at) / Fold change /veh FAM26E (11764081_at) / RFU ISYNA1 (11749810_s_at) / Fold change /veh ISYNA1 (11749810_s_at) / RFU ACY1 (11761880_at) / Fold change /veh ACY1 (11761880_at) / RFU 11764098_at / Fold change /veh 11764098_at / RFU SAMD14 (11745864_x_at) / Fold change /veh SAMD14 (11745864_x_at) / RFU NPB (11741838_a_at) / Fold change /veh NPB (11741838_a_at) / RFU TMPRSS6 (11731388_a_at) / Fold change /veh TMPRSS6 (11731388_a_at) / RFU KRTAP10-2 (11738614_at) / Fold change /veh KRTAP10-2 (11738614_at) / RFU ARHGAP8 /// PRR5-ARHGAP8 (11727945_x_at) / Fold change /veh ARHGAP8 /// PRR5-ARHGAP8 (11727945_x_at) / RFU KRTAP5-7 /// NADSYN1 (11734609_at) / Fold change /veh KRTAP5-7 /// NADSYN1 (11734609_at) / RFU RASL12 (11751679_a_at) / Fold change /veh RASL12 (11751679_a_at) / RFU CDKN2B (11736163_a_at) / Fold change /veh CDKN2B (11736163_a_at) / RFU PRF1 (11729649_at) / Fold change /veh PRF1 (11729649_at) / RFU, ZNF638 /// ZNF638-IT1 / Fold change vs veh, ZNF638 /// ZNF638-IT1 / RFU, PANK3 / Fold change vs veh, PANK3 / RFU, SH3YL1 / Fold change vs veh, SH3YL1 / RFU, ZEB2 / Fold change vs veh, ZEB2 / RFU, NRIP1 / Fold change vs veh, NRIP1 / RFU, PTTG1IP / Fold change vs veh, PTTG1IP / RFU, CAPN2 / Fold change vs veh, CAPN2 / RFU, MED14 / Fold change vs veh, MED14 / RFU, SNORA58 / Fold change vs veh, SNORA58 / RFU, C1orf63 / Fold change vs veh, C1orf63 / RFU, LRRFIP1 / Fold change vs veh, LRRFIP1 / RFU, NDUFAF7 / Fold change vs veh, NDUFAF7 / RFU, SLC12A2 / Fold change vs veh, SLC12A2 / RFU, IBTK / Fold change vs veh, IBTK / RFU, ESF1 / Fold change vs veh, ESF1 / Fold change vs veh, TMEM50B / RFU, TAOK1 / Fold change vs veh, TAOK1 / RFU, ACBD3 / Fold change vs veh, ACBD3 / RFU, TMA16 / Fold change vs veh, TMA16 / RFU, RWDD3 / Fold change vs veh, RWDD3 / RFU, BCAT1 / Fold change vs veh, BCAT1 / RFU, EDEM3 / Fold change vs veh, EDEM3 / RFU, TMEM33 / Fold change vs veh, TMEM33 / RFU, WDR75 / Fold change vs veh, WDR75 / RFU, AHCTF1 / Fold change vs veh, AHCTF1 / RFU, TFRC / Fold change vs veh, TFRC / RFU, ZDHHC17 / Fold change vs veh, ZDHHC17 / RFU, NOM1 / Fold change vs veh, NOM1 / RFU, ARL8B / Fold change vs veh, ARL8B / RFU, ZBTB11 / Fold change vs veh, ZBTB11 / RFU, TAMM41 / Fold change vs veh, TAMM41 / RFU, KIAA1704 /// LOC100996395 / Fold change vs veh, KIAA1704 /// LOC100996395 / RFU, ING1 / Fold change vs veh, ING1 / RFU, TRMT61B / Fold change vs veh, TRMT61B / RFU, FUBP3 / Fold change vs veh, FUBP3 / RFU, TP53 / Fold change vs veh, TP53 / RFU, TNKS2 / Fold change vs veh, TNKS2 / RFU, ZFP14 / Fold change vs veh, ZFP14 / RFU, ACTR2 / Fold change vs veh, ACTR2 / RFU, PPP3R1 / Fold change vs veh, PPP3R1 / RFU, PIK3R1 / Fold change vs veh, PIK3R1 / RFU, HNRNPA1 / Fold change vs veh, HNRNPA1 / RFU, RNF170 / Fold change vs veh, RNF170 / RFU, ZNF28 / Fold change vs veh, ZNF28 / RFU, RNGTT / Fold change vs veh, RNGTT / RFU, OGT / Fold change vs veh, OGT / RFU, BRD1 / Fold change vs veh, BRD1 / RFU, MARS / Fold change vs veh, MARS / RFU, ZNF655 / Fold change vs veh, ZNF655 / RFU, FAHD1 / Fold change vs veh, FAHD1 / RFU, BDP1 / Fold change vs veh, BDP1 / RFU, LRRCC1 / Fold change vs veh, LRRCC1 / RFU, ARID1A / Fold change vs veh, ARID1A / RFU, ZNF146 / Fold change vs veh, ZNF146 / RFU, ZNF330 / Fold change vs veh, ZNF330 / RFU, GPN3 / Fold change vs veh, GPN3 / RFU, C9orf123 / Fold change vs veh, C9orf123 / RFU, N4BP2L2 / Fold change vs veh, N4BP2L2 / RFU, ARFIP1 / Fold change vs veh, ARFIP1 / RFU, FAM179B / Fold change vs veh, FAM179B / RFU, BCL10 / Fold change vs veh, BCL10 / RFU, UHRF1BP1L / Fold change vs veh, UHRF1BP1L / RFU, BET1 / Fold change vs veh, BET1 / RFU, CNOT2 / Fold change vs veh, CNOT2 / RFU, ZNF268 / Fold change vs veh, ZNF268 / Fold change vs veh, ZNF507 / RFU, DGCR2 / Fold change vs veh, DGCR2 / RFU, WDSUB1 / Fold change vs veh, WDSUB1 / Fold change vs veh, HSP90B1 /// MIR3652 / RFU, ADSS / Fold change vs veh, ADSS / RFU, GK / Fold change vs veh, GK / RFU, ZNF148 / Fold change vs veh, ZNF148 / RFU, TAF9 / Fold change vs veh, TAF9 / RFU, SLC1A5 / Fold change vs veh, SLC1A5 / RFU, SLMO2 / Fold change vs veh, SLMO2 / RFU, ABCC4 / Fold change vs veh, ABCC4 / RFU, LOC101060439 /// RAP1B / Fold change vs veh, LOC101060439 /// RAP1B / RFU, RFX7 / Fold change vs veh, RFX7 / RFU, GTPBP10 / Fold change vs veh, GTPBP10 / RFU, CNEP1R1 / Fold change vs veh, CNEP1R1 / RFU, BIVM-ERCC5 /// ERCC5 / Fold change vs veh, BIVM-ERCC5 /// ERCC5 / RFU, ILF3 / Fold change vs veh, ILF3 / RFU 11762660_at / Fold change /veh 11762660_at / RFU VCAN (11757783_s_at) / Fold change /veh VCAN (11757783_s_at) / RFU DDX43 (11728927_at) / Fold change /veh DDX43 (11728927_at) / RFU KRT8 (11758188_x_at) / Fold change /veh KRT8 (11758188_x_at) / RFU NKD1 (11759106_at) / Fold change /veh NKD1 (11759106_at) / RFU SRD5A1 (11742802_a_at) / Fold change /veh SRD5A1 (11742802_a_at) / RFU TPSAB1 /// TPSB2 (11721975_s_at) / Fold change /veh TPSAB1 /// TPSB2 (11721975_s_at) / RFU GSTM3 (11746129_a_at) / Fold change /veh GSTM3 (11746129_a_at) / RFU IL23R (11737362_x_at) / Fold change /veh IL23R (11737362_x_at) / RFU TMEM51 (11727254_a_at) / Fold change /veh TMEM51 (11727254_a_at) / RFU PIWIL2 (11732686_x_at) / Fold change /veh PIWIL2 (11732686_x_at) / RFU ORM1 (11744905_x_at) / Fold change /veh ORM1 (11744905_x_at) / RFU CCDC152 (11743942_at) / Fold change /veh CCDC152 (11743942_at) / RFU ECM1 (11717891_a_at) / Fold change /veh ECM1 (11717891_a_at) / RFU IL23R (11748794_a_at) / Fold change /veh IL23R (11748794_a_at) / RFU TNFAIP8L3 (11732012_x_at) / Fold change /veh TNFAIP8L3 (11732012_x_at) / RFU MBOAT4 (11741988_at) / Fold change /veh MBOAT4 (11741988_at) / RFU 11764193_at / Fold change /veh 11764193_at / RFU TMEM53 (11763286_at) / Fold change /veh TMEM53 (11763286_at) / RFU MAGEB2 (11727129_at) / Fold change /veh MAGEB2 (11727129_at) / RFU TMEM200A (11744735_a_at) / Fold change /veh TMEM200A (11744735_a_at) / RFU CCDC152 (11751479_a_at) / Fold change /veh CCDC152 (11751479_a_at) / RFU FAM211A (11726209_a_at) / Fold change /veh FAM211A (11726209_a_at) / RFU RGS16 (11746705_a_at) / Fold change /veh RGS16 (11746705_a_at) / RFU VCAN (11755009_s_at) / Fold change /veh VCAN (11755009_s_at) / RFU RHOB (11743442_s_at) / Fold change /veh RHOB (11743442_s_at) / RFU RGS16 (11720943_a_at) / Fold change /veh RGS16 (11720943_a_at) / RFU RGS16 (11720944_at) / Fold change /veh RGS16 (11720944_at) / RFU, VPS4B / Fold change vs veh, VPS4B / RFU, CREB1 / Fold change vs veh, CREB1 / RFU, DNAJC13 / Fold change vs veh, DNAJC13 / RFU, GNAQ / Fold change vs veh, GNAQ / RFU, CDK5R1 / Fold change vs veh, CDK5R1 / RFU, ZRANB3 / Fold change vs veh, ZRANB3 / RFU, CUL4A / Fold change vs veh, CUL4A / RFU, CCNY / Fold change vs veh, CCNY / RFU, UFL1 / Fold change vs veh, UFL1 / RFU, COG3 / Fold change vs veh, COG3 / RFU, DIAPH2 / Fold change vs veh, DIAPH2 / RFU, SKA2 / Fold change vs veh, SKA2 / RFU, AFF3 / Fold change vs veh, AFF3 / RFU, LMF1 / Fold change vs veh, LMF1 / RFU, IPO11 / Fold change vs veh, IPO11 / RFU, DFFB / Fold change vs veh, DFFB / RFU, FOXP1 / Fold change vs veh, FOXP1 / RFU, CARD8 / Fold change vs veh, CARD8 / RFU, STRN3 / Fold change vs veh, STRN3 / RFU, ADK / Fold change vs veh, ADK / RFU, RASSF2 / Fold change vs veh, RASSF2 / RFU, WIPF1 / Fold change vs veh, WIPF1 / RFU, LARP1B / Fold change vs veh, LARP1B / RFU, RASA1 / Fold change vs veh, RASA1 / RFU, RB1 / Fold change vs veh, RB1 / RFU, PPFIA1 / Fold change vs veh, PPFIA1 / RFU, MAT2A / Fold change vs veh, MAT2A / RFU, CCT5 / Fold change vs veh, CCT5 / RFU, WDR92 / Fold change vs veh, WDR92 / RFU, CUX1 / Fold change vs veh, CUX1 / RFU, TTC7A / Fold change vs veh, TTC7A / RFU, TMEM135 / Fold change vs veh, TMEM135 / RFU, DEPTOR / Fold change vs veh, DEPTOR / RFU, CPM / Fold change vs veh, CPM / RFU, DNAJB6 / Fold change vs veh, DNAJB6 / RFU, CACNA2D3 / Fold change vs veh, CACNA2D3 / RFU, DTX4 / Fold change vs veh, DTX4 / RFU, TFCP2 / Fold change vs veh, TFCP2 / RFU, GMCL1 /// GMCL1P1 / Fold change vs veh, GMCL1 /// GMCL1P1 / RFU, AEBP2 / Fold change vs veh, AEBP2 / RFU, SNHG1 /// SNORD22 /// SNORD25 /// SNORD26 /// SNORD27 /// SNORD28 /// SNORD29 /// SNORD31 / Fold change vs veh, SNHG1 /// SNORD22 /// SNORD25 /// SNORD26 /// SNORD27 /// SNORD28 /// SNORD29 /// SNORD31 / Fold change (Aza/veh), C12orf56 (ProbeSet 11735607_a_at) / Fold change (ACY-1035/veh), C12orf56 (ProbeSet 11735607_a_at) / Fold change (Aza/veh), FGFR1OP (ProbeSet 11751329_s_at) / Fold change (ACY-1035/veh), FGFR1OP (ProbeSet 11751329_s_at) / Fold change (Aza/veh), VPS36 (ProbeSet 11739960_a_at) / Fold change (ACY-1035/veh), VPS36 (ProbeSet 11739960_a_at) / RFU SYPL1 (11715823_x_at) / Fold change /veh SYPL1 (11715823_x_at) / RFU IGFBP7 (11715501_s_at) / Fold change /veh IGFBP7 (11715501_s_at) / RFU REEP3 (11722064_at) / Fold change /veh REEP3 (11722064_at) / RFU IGLL1 (11728026_x_at) / Fold change /veh IGLL1 (11728026_x_at): dose or concentration left out as unconfirmed. The settings on record: MV-4-11 cells, 48 hours.

Regarding `Nc1ncn([C@@H]2O[C@H](CO)[C@@H](O)[C@H]2O)c(=O)n1` [azacitidine], the “Fold change /veh MAGEB2 (11727129_at)” value was 2.40.
